Results from ChEMBL document CHEMBL5370540, “Discovery of pyrimidine-5-carboxamide derivatives as novel salt-inducible kinases (SIKs) inhibitors for inflammatory bowel disease (IBD) treatment” (Eur J Med Chem, 2023).
The source made the active and inactive calls. The calls are words filed in the database; no cut-off is given here.

Experiments:
[1] = Metabolic stability in human liver microsomes assessed as half life; format: ADME, Microsome
[2] = target: T1, Serine/threonine-protein kinase SIK2 (Homo sapiens, UniProt Q9H0K1); assay: Inhibition of SIK2 (unknown origin) assessed as residual activity at 0.1 uM relative to control
Target sequence in this assay (Q9H0K1 whole entry, looked up): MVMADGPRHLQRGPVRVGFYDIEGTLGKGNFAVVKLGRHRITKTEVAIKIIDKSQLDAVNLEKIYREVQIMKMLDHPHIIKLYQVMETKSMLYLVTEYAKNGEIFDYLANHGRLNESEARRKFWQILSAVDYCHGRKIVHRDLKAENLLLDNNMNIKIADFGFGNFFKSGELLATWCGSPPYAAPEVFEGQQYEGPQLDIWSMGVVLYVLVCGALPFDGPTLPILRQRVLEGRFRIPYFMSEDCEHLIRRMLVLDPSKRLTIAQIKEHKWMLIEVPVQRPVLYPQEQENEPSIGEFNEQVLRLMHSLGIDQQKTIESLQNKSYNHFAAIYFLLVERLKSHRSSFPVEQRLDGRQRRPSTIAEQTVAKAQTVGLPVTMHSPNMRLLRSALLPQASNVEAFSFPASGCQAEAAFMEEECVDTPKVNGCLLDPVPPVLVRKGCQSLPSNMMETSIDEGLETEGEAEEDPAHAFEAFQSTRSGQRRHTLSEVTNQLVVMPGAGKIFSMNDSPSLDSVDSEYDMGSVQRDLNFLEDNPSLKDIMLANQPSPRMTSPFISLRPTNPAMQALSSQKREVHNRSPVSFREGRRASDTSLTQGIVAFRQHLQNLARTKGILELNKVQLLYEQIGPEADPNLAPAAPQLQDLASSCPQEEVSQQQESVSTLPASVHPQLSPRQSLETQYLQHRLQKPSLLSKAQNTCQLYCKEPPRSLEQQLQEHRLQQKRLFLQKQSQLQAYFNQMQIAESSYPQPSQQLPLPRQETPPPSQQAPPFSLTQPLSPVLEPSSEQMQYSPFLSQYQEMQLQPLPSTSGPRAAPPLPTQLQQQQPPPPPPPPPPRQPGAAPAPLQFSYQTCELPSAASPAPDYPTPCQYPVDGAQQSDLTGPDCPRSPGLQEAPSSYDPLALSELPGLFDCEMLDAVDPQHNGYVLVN

[3] = target: T2, Serine/threonine-protein kinase SIK3 (Homo sapiens, UniProt Q9Y2K2); assay: Inhibition of SIK3 (unknown origin) assessed as residual activity at 0.1 uM relative to control
Target sequence in this assay (Q9Y2K2 whole entry, looked up): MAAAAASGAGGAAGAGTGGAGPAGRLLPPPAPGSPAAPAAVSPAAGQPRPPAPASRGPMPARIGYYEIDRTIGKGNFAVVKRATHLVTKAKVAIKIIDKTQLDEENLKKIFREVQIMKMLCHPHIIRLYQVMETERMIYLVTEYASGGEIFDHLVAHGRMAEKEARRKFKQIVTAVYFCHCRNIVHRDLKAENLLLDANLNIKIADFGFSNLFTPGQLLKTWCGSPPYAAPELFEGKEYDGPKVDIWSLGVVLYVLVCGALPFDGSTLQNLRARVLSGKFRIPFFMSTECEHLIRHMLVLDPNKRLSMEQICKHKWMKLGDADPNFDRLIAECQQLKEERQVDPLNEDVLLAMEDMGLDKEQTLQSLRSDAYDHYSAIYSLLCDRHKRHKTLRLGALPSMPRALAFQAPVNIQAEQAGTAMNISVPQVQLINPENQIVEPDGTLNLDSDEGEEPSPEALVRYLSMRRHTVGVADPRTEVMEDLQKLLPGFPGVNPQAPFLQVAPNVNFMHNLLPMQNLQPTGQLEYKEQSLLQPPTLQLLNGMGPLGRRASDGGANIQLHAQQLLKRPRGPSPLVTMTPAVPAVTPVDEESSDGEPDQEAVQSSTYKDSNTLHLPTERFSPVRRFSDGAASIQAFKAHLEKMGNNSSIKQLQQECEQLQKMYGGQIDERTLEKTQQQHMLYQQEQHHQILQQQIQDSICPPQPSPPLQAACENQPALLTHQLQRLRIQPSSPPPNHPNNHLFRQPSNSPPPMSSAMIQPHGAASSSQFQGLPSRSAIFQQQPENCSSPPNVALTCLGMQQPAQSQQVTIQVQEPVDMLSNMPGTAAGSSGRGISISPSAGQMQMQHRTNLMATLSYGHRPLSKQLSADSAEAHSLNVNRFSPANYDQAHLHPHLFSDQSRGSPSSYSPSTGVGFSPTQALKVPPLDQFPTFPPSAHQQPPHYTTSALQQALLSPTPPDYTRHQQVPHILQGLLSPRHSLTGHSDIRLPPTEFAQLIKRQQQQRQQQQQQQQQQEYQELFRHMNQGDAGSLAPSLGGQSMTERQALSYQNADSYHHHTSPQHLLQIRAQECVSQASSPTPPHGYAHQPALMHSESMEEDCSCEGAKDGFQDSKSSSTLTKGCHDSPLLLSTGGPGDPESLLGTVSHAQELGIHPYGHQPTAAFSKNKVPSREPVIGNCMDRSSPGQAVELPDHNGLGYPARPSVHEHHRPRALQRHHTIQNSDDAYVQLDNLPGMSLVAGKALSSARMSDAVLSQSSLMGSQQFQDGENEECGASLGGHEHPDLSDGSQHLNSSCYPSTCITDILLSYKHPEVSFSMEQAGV

[4] = target: T3, Serine/threonine-protein kinase SIK1 (Homo sapiens, UniProt P57059); assay: Inhibition of SIK1 (unknown origin)
T3 sequence (P57059 whole entry): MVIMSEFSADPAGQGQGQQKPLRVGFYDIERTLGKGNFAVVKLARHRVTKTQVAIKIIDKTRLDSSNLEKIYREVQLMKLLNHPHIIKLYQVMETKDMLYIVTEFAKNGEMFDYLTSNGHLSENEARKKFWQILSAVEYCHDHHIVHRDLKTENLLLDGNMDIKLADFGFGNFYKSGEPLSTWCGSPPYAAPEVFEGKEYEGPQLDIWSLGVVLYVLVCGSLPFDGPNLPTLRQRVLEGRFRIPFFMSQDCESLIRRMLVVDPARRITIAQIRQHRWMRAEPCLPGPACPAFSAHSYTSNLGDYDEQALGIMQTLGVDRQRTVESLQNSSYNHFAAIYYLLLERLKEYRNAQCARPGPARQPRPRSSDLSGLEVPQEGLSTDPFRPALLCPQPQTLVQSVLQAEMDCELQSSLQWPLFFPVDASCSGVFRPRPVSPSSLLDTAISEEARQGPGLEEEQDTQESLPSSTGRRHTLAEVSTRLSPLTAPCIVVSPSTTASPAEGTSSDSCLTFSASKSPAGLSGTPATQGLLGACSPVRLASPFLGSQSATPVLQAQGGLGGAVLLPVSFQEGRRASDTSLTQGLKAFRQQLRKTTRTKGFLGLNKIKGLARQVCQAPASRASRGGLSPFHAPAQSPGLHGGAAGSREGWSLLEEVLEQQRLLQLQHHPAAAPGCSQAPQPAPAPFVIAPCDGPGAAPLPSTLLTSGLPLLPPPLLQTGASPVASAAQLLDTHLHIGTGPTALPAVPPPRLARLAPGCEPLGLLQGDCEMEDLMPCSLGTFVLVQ

[5] = target: T1, Serine/threonine-protein kinase SIK2; assay: Inhibition of SIK2 (unknown origin)
Target sequence in this assay (Q9H0K1 whole entry): as the sequence (Q9H0K1 whole entry, looked up) above

[6] = target: T2, Serine/threonine-protein kinase SIK3; assay: Inhibition of SIK3 (unknown origin)
Target sequence in this assay (Q9Y2K2 whole entry): as the sequence (Q9Y2K2 whole entry, looked up) above

[7] = Selectivity ratio of IC50 for SIK1 (unknown origin) to IC50 for SIK2 (unknown origin)
[8] = Selectivity ratio of IC50 for SIK3 (unknown origin) to IC50 for SIK2 (unknown origin)
[9] = AUC (0 to t) in Sprague-Dawley rat at 5 mg/kg, iv measured upto 24 hrs by LC/MS/MS analysis; format: ADME, organism-based; design: time < 24 hrs, dose 5 mg/kg, route iv; details: in vivo
[10] = Half life in Sprague-Dawley rat at 5 mg/kg, iv measured upto 24 hrs by LC/MS/MS analysis; format: ADME, organism-based; details: in vivo
[11] = Tmax in Sprague-Dawley rat at 5 mg/kg, iv measured upto 24 hrs by LC/MS/MS analysis; format: ADME, organism-based; details: in vivo
[12] = Clearance in Sprague-Dawley rat at 5 mg/kg, iv measured upto 24 hrs by LC/MS/MS analysis; format: ADME, organism-based; details: in vivo
[13] = Cmax in Sprague-Dawley rat at 5 mg/kg, iv measured upto 24 hrs by LC/MS/MS analysis; format: ADME, organism-based; design: dose 5 mg/kg, time < 24 hrs, route iv; details: in vivo
[14] = AUC (0 to t) in Sprague-Dawley rat at 5 mg/kg, po measured upto 24 hrs by LC/MS/MS analysis; format: ADME, organism-based; design: time < 24 hrs, dose 5 mg/kg, route po; details: in vivo
[15] = Half life in Sprague-Dawley rat at 5 mg/kg, po measured upto 24 hrs by LC/MS/MS analysis; format: ADME, organism-based; details: in vivo
[16] = Tmax in Sprague-Dawley rat at 5 mg/kg, po measured upto 24 hrs by LC/MS/MS analysis; format: ADME, organism-based; details: in vivo
[17] = Clearance in Sprague-Dawley rat at 5 mg/kg, po measured upto 24 hrs by LC/MS/MS analysis; format: ADME, organism-based; details: in vivo
[18] = Cmax in Sprague-Dawley rat at 5 mg/kg, po measured upto 24 hrs by LC/MS/MS analysis; format: ADME, organism-based; design: time < 24 hrs, dose 5 mg/kg, route po; details: in vivo
[19] = Oral bioavailability in Sprague-Dawley rat at 5 mg/kg measured upto 24 hrs by LC/MS/MS analysis; format: ADME, organism-based; details: in vivo
[20] = Metabolic stability in mouse liver microsomes assessed as half life; format: ADME, Microsome
[21] = Protein binding in mouse plasma; format: ADME, cell-free; details: read-out: PPB
[22] = target: T3, Serine/threonine-protein kinase SIK1; assay: Inhibition of SIK1 (unknown origin) assessed as residual activity at 0.1 uM relative to control
[23] = Protein binding in human plasma at 10 uM measured for 8 hrs by dialysis method; format: ADME, cell-free; details: read-out: PPB (converted)
BMDM [24] = assay: Cytotoxicity against C57BL/6J mouse BMDM cells assessed as cell viability upto 500 nM preincubated for 1 hr followed by LPS stimulation measured after 2 to 4 hrs by CCK8 assay; format: toxicity, cell-based; details: 0.5 µM, time 3-5 hrs
BMDM [25] = assay: Anti-inflammatory activity against C57BL/6J mouse BMDM cells assessed as increase in IL-10 level at 500 nM preincubated for 1 hr followed by LPS stimulation measured after 2 to 8 hrs by ELISA method; format: functional, cell-based; details: time 3-9 hrs
BMDM [26] = assay: Anti-inflammatory activity against C57BL/6J mouse BMDM cells assessed as decrease in IL-12 level at 500 nM preincubated for 1 hr followed by LPS stimulation measured after 4 to 8 hrs by ELISA method; format: functional, cell-based; details: time 5-9 hrs
BMDM [27] = assay: Anti-inflammatory activity against C57BL/6J mouse BMDM cells assessed as decrease in IL-12 level at 500 nM preincubated for 1 hr followed by LPS stimulation measured after 8 hrs by ELISA method; format: functional, cell-based; details: time 9.0 hrs
BMDM [28] = assay: Anti-inflammatory activity against C57BL/6J mouse BMDM cells assessed as decrease in IL-12 level upto 500 nM preincubated for 1 hr followed by LPS stimulation measured after 8 hrs by ELISA method; format: functional, cell-based; details: time 9.0 hrs

Structure (SMILES): COc1cc(N2CCN(C)CC2)ccc1Nc1ncc(C(=O)Nc2c(C)cccc2C)c(NC2CCC2)n1
- half-life [1]: 44.1 min

Structure (SMILES): COc1cccc(C)c1NC(=O)c1cnc(Nc2ccc(N3CCN(C)CC3)cc2)nc1NC1CCC1
- half-life [1]: 31.9 min
- Activity [2]: 107%
- Activity [3]: 93%

Structure (SMILES): Cc1cccc(F)c1NC(=O)c1cnc(Nc2ccc(N3CCN(C)CC3)c(F)c2)nc1NC1CC1
- IC50 [4]: 0.016 µM
- IC50 [5]: 0.006 µM
- IC50 [6]: 0.051 µM
- half-life [1]: 73.7 min
- Ratio IC50 [7]: 2.7
- Ratio IC50 [8]: 8.5
- AUC(0-t) at 24 h [9]: 1.85 µg·h/mL
- half-life [10]: 366 min
- Tmax [11]: 6 min
- clearance [12]: 3.1 L/h/kg
- Cmax [13]: 1.54 µg/mL
- AUC(0-t) at 24 h [14]: 0.432 µg·h/mL
- half-life [15]: 234 min
- Tmax [16]: 222 min
- CL/F [17]: 18.9 L/h/kg
- Cmax [18]: 0.0522 µg/mL
- bioavailability [19]: 23.4%

Structure (SMILES): COc1ccc(N2C(=O)N(c3c(C)cccc3Cl)Cc3cnc(Nc4ccc(C5CCN(C)CC5)cc4OC)nc32)nc1
- half-life [20]: > 120 min
- fraction unbound [21]: > 0.06

Structure (SMILES): COc1cc(Nc2ncc(C(=O)Nc3c(C)cccc3C)c(NC3CC3)n2)ccc1N1CCN(C)CC1
- half-life [1]: 52.1 min

Structure (SMILES): CNc1nc(Nc2ccc(N3CCN(C)CC3)cc2)ncc1C(=O)Nc1c(C)cccc1C
- half-life [1]: 17.5 min

Structure (SMILES): Cc1cccc(C)c1NC(=O)c1cnc(Nc2ccc(N3CCN(C)CC3)cc2)nc1NC1CCCC1
- half-life [1]: 32.4 min

Structure (SMILES): CN1CCN(c2ccc(Nc3ncc(C(=O)Nc4ccccc4F)c(NC4CCC4)n3)cc2)CC1
- half-life [1]: 45.6 min
- Activity [22]: 124%
- Activity [2]: 22%
- Activity [3]: 100%

Structure (SMILES): COc1ccc(Nc2nc(Nc3ccc(N4CCN(C)CC4)cc3)ncc2C(=O)Nc2c(C)cccc2C)c(OC)c1
- half-life [1]: > 120 min

Structure (SMILES): Cc1cccc(C)c1NC(=O)c1cnc(Nc2ccc(N3CCNCC3)cc2)nc1NC1CCC1
- half-life [1]: 33 min

Structure (SMILES): COc1cc(Nc2ncc(C(=O)Nc3c(C)cccc3C)c(NC3CCC3)n2)ccc1N1CCN(C)CC1
- half-life [1]: 48.6 min

Structure (SMILES): CN1CCN(c2ccc(Nc3ncc(C(=O)Nc4c(F)cccc4F)c(NC4CCC4)n3)cc2)CC1
- half-life [1]: 49.5 min
- Activity [22]: 12%
- Activity [2]: 10%
- Activity [3]: 93%

Structure (SMILES): Cc1cccc(C)c1NC(=O)c1cnc(Nc2ccc(N3CCN(C)CC3)cc2F)nc1NC1CCC1
- half-life [1]: > 120 min

Structure (SMILES): Cc1cccc(F)c1NC(=O)c1cnc(Nc2ccc(N3CCN(C)CC3)cc2)nc1NC1CCC1
- half-life [1]: 69.3 min
- Activity [2]: 1%
- Activity [3]: 9%

Structure (SMILES): Cc1cccc(Cl)c1NC(=O)c1cnc(Nc2ccc(N3CCN(C)CC3)cc2)nc1NC1CCC1
- half-life [1]: 43.3 min
- Activity [22]: 31%
- Activity [2]: 20%
- Activity [3]: 68%

Structure (SMILES): Cc1cccc(C)c1NC(=O)c1cnc(Nc2ccc(N3CCN(C)CC3)c(Cl)c2)nc1NC1CCC1
- half-life [1]: 56.6 min

Structure (SMILES): Cc1cccc(Br)c1NC(=O)c1cnc(Nc2ccc(N3CCN(C)CC3)cc2)nc1NC1CCC1
- half-life [1]: 21.5 min
- Activity [2]: 52%
- Activity [3]: 66%

Structure (SMILES): Cc1cccc(C)c1NC(=O)c1cnc(Nc2ccc(CN3CCOCC3)cc2)nc1NC1CCC1
- half-life [1]: 6.5 min

Structure (SMILES): Cc1cccc(C)c1NC(=O)c1cnc(Nc2ccc(N3CCN(C)CC3)cc2)nc1NC(C)C
- half-life [1]: 24.3 min

Structure (SMILES): COc1ccc(N2C(=O)N(c3c(C)cccc3Cl)Cc3cnc(Nc4ccc(N5CCN(C)CC5)cc4)nc32)nc1
- half-life [20]: 27 min

Structure (SMILES): Cc1cccc(C)c1NC(=O)c1cnc(Nc2ccc(N3CCN(C)CC3)c(F)c2)nc1NC1CCC1
- half-life [1]: 62.4 min

Structure (SMILES): Cc1cccc(C)c1NC(=O)c1cnc(Nc2ccc(N3CCN(C)CC3)c(F)c2)nc1NC1CC1
- half-life [1]: 60.3 min

Structure (SMILES): COc1ccc(N(C(=O)Nc2c(C)cccc2C)c2cc(Nc3ccc(N4CCN(C)CC4)cc3)ncn2)c(OC)c1
- half-life [20]: 11 min
- half-life [1]: 14.4 min
- AUC(0-t) at 24 h [9]: 1.11 µg·h/mL
- half-life [10]: 210 min
- Tmax [11]: 6 min
- clearance [12]: 4.6 L/h/kg
- Cmax [13]: 1.29 µg/mL
- AUC(0-t) at 24 h [14]: 0.522 µg·h/mL
- half-life [15]: 150 min
- Tmax [16]: 78 min
- CL/F [17]: 13.4 L/h/kg
- Cmax [18]: 0.149 µg/mL
- bioavailability [19]: 47.2%
- fraction unbound at 8 h, 10 µM [23]: < 0.01
- Activity (BMDM [24]): Non-Toxic
- Activity (BMDM [25]): Active
- Activity (BMDM [26]): inactive
- Activity (BMDM [27]): Active
- Activity (BMDM [28]): Active

Structure (SMILES): Cc1cccc(C)c1NC(=O)c1cnc(Nc2ccc(N3CCN(C)CC3)cc2)nc1NC1CCCCC1
- half-life [1]: 37.3 min

Structure (SMILES): Cc1cccc(C)c1NC(=O)c1cnc(Nc2ccc(N3CCN(C)CC3)cc2)nc1NC1CCC1
- half-life [1]: 44.7 min

Structure (SMILES): Cc1cccc(C)c1NC(=O)c1cnc(Nc2ccc(N3CCN(C)CC3)cc2)nc1NC1CC1
- half-life [1]: 40.8 min
